Assay results taken from PMC10082216 (Nature Communications, 2023).
Like-named read-outs stand apart in the source and are kept apart here.

Assay: TD-6450 phase I clinical study (SAD/MAD): pharmacokinetics
Assay type: in vivo, human
Settings: male, human
Experimental: Primary and secondary outcomes were pre-defined as follows: Safety and tolerability as a primary outcome, pharmacokinetics as a secondary outcome. Safety and tolerability were evaluated using standard measures, including adverse event (AE) monitoring, clinical laboratory tests (hematology, serum chemistry, coagulation, and urinalysis), vital signs, physical examinations, and 12-lead electrocardiograms (ECGs). […]
This study was conducted in two parts, Part A (SAD) and Part B (MAD). For the Part A, the age of enrolled subjects ranged from 20 to 60 years, with a mean age range of 32.1 to 46.2 years. Most subjects were male (73 total subjects) and most were white (55 subjects) or black (22 subjects). For Part B of the study, ages ranged from 23 to 60 years with a similar mean age across treatment groups. Most subjects were male (25 total subjects) and all were either white (18 subjects) or black (12 subjects). For each part of the study, the mean body mass index (BMI) and creatinine clearance were similar across treatment groups. […] Part A: Healthy subjects were sequentially enrolled and randomly assigned to each dose cohort (up to 10 dose-ascending cohorts were planned, including a fed arm in the food effect cohort) to receive either a single dose of TD-6450 or placebo. For each dose cohort, 8 subjects were randomized in a 3:1 ratio (6 subjects received TD-6450 and 2 subjects received placebo). The starting dose of TD-6450 was 0.5 mg with a planned maximum dose of 1000 mg. Upon review of the 500-mg cohort PK data, the decision was made to not escalate to the 1000-mg cohort because of exposure saturation at ≥ 500 mg. The following doses were administered: 0.5 mg, 1.5 mg, 5 mg, 15 mg, 30 mg, 60 mg, 120 mg, 240 mg, and 500 mg. Part B: Healthy subjects were sequentially enrolled in 3 ascending dose cohorts (TD-6450 60 mg, 120 mg, and 240 mg) and randomly assigned to receive either TD-6450 or placebo as once daily doses for 14 days. For each dose cohort, 10 subjects were randomized in a 4:1 ratio (8 subjects received TD-6450 and 2 subjects received placebo). Blinded safety, tolerability, and available PK data after each dose cohort were reviewed by the Safety Data Review Committee (SDRC) before escalation to the next dosing cohort for both part A and B. Subjects of the clinical study were randomly assigned to each cohort. Randomizations codes were assigned to the subjects. All study subjects, study investigators, and the sponsor’s staff involved in the conduct of the study were blinded to treatment assignment. The only personnel who had access to the randomization code before database lock were: The pharmacist or pharmacy staff member who prepared drug or placebo capsules for administration to the subject according to the randomization code and the bioanalytical contract laboratory that analyzed the PK samples (plasma and urine).

CNC(=O)N1C[C@@H](C)N(c2ccc(C(=O)Nc3ccc(-c4ccc(-c5c[nH]c([C@@H]6CCCN6C(=O)[C@@H](NC(=O)OC)C(C)C)n5)cc4)c(OC(F)(F)F)c3)cn2)C[C@@H]1C [TD-6450]
TD-6450 concentration (in vivo, 120 h): 29.30 ng/mL | concentration at 15 min (in vivo, TD-6450 concentration): 0 ng/mL | concentration at 2 h (in vivo, TD-6450 concentration): 116 ng/mL | concentration at 3 h (in vivo, TD-6450 concentration): 156 ng/mL | concentration at 4 h (in vivo, TD-6450 concentration): 159 ng/mL | concentration at 6 h (in vivo, TD-6450 concentration): 165 ng/mL | concentration at 12 h (in vivo, TD-6450 concentration): 108 ng/mL | concentration at 24 h (in vivo, TD-6450 concentration): 85.6 ng/mL | concentration at 48 h (in vivo, TD-6450 concentration): 60 ng/mL | concentration at 72 h (in vivo, TD-6450 concentration): 42.6 ng/mL | concentration at 96 h (in vivo, TD-6450 concentration): 27.1 ng/mL | concentration at 120 h (in vivo, TD-6450 concentration): 19.3 ng/mL | concentration at 144 h (in vivo, TD-6450 concentration): 15.1 ng/mL | concentration at 168 h (in vivo, TD-6450 concentration): 12.2 ng/mL | concentration at 312 h (in vivo, TD-6450 concentration): 2.12 ng/mL | concentration at 1 h (plasma, oral, 0.5 mg, Male subjects, SAD arm NCT02022306, Dose 0.50, 1 Hour, read-out: Concentration): 0 ng/mL | concentration at 2 h (plasma, oral, 0.5 mg, Male subjects, SAD arm NCT02022306, Dose 0.50, 2 Hours, read-out: Concentration): 0 ng/mL | concentration at 3 h (plasma, oral, 0.5 mg, Male subjects, SAD arm NCT02022306, Dose 0.50, 3 Hours, read-out: Concentration): 0 ng/mL | concentration at 15 min (plasma, oral, 0.5 mg, Male subjects, SAD arm NCT02022306, Dose 0.50, 15 Minutes, read-out: Concentration): 0 ng/mL | concentration at 24 h (plasma, oral, 0.5 mg, Male subjects, SAD arm NCT02022306, Dose 0.50, 24 Hours, read-out: Concentration): 0 ng/mL | concentration at 30 min (plasma, oral, 0.5 mg, Male subjects, SAD arm NCT02022306, Dose 0.50, 30 Minutes, read-out: Concentration): 0 ng/mL | concentration at 72 h (plasma, oral, 0.5 mg, Male subjects, SAD arm NCT02022306, Dose 0.50, 72 Hours, read-out: Concentration): 0 ng/mL | concentration at 96 h (plasma, oral, 0.5 mg, Male subjects, SAD arm NCT02022306, Dose 0.50, 96 Hours, read-out: Concentration): 0 ng/mL | concentration at 120 h (plasma, oral, 0.5 mg, Male subjects, SAD arm NCT02022306, Dose 0.50, 120 Hours, read-out: Concentration): 0 ng/mL | concentration at 144 h (plasma, oral, 0.5 mg, Male subjects, SAD arm NCT02022306, Dose 0.50, 144 Hours, read-out: Concentration): 0 ng/mL | concentration at 168 h (plasma, oral, 0.5 mg, Male subjects, SAD arm NCT02022306, Dose 0.50, 168 Hours, read-out: Concentration): 0 ng/mL | concentration at 15 min (plasma, oral, 1.5 mg, Male subjects, SAD arm NCT02022306, Dose 1.50, 15 Minutes, read-out: Concentration): 0 ng/mL | concentration at 30 min (plasma, oral, 1.5 mg, Male subjects, SAD arm NCT02022306, Dose 1.50, 30 Minutes, read-out: Concentration): 0 ng/mL | concentration at 15 min (plasma, oral, 5 mg, Male subjects, SAD arm NCT02022306, Dose 5.00, 15 Minutes, read-out: Concentration): 0 ng/mL | concentration at 15 min (plasma, oral, 15 mg, Male subjects, SAD arm NCT02022306, Dose 15.00, 15 Minutes, read-out: Concentration): 0 ng/mL | concentration at 1 h (plasma, oral, 30 mg, Male subjects, SAD arm NCT02022306, Dose 30.00, 1 Hour, read-out: Concentration (ng/ml)): 0.68 ng/mL | concentration at 2 h (plasma, oral, 30 mg, Male subjects, SAD arm NCT02022306, Dose 30.00, 2 Hours, read-out: Concentration): 9.36 ng/mL | concentration at 3 h (plasma, oral, 30 mg, Male subjects, SAD arm NCT02022306, Dose 30.00, 3 Hours, read-out: Concentration): 15.6 ng/mL | concentration at 3 h (plasma, oral, 30 mg, Male subjects, SAD arm NCT02022306, Dose 30.00, 3 Hours, read-out: Concentration (ng/ml)): 20.9 ng/mL | concentration at 4 h (plasma, oral, 30 mg, Male subjects, SAD arm NCT02022306, Dose 30.00, 4 Hours, read-out: Concentration): 18.8 ng/mL | concentration at 4 h (plasma, oral, 30 mg, Male subjects, SAD arm NCT02022306, Dose 30.00, 4 Hours, read-out: Concentration (ng/ml)): 17.9 ng/mL | concentration at 6 h (plasma, oral, 30 mg, Male subjects, SAD arm NCT02022306, Dose 30.00, 6 Hours, read-out: Concentration): 22.6 ng/mL | concentration at 8 h (plasma, oral, 30 mg, Male subjects, SAD arm NCT02022306, Dose 30.00, 8 Hours, read-out: Concentration): 26.3 ng/mL | concentration at 12 h (plasma, oral, 30 mg, Male subjects, SAD arm NCT02022306, Dose 30.00, 12 Hours, read-out: Concentration): 18.7 ng/mL | concentration at 15 min (plasma, oral, 30 mg, Male subjects, SAD arm NCT02022306, Dose 30.00, 15 Minutes, read-out: Concentration): 0 ng/mL | concentration at 15 min (plasma, oral, 30 mg, Male subjects, SAD arm NCT02022306, Dose 30.00, 15 Minutes, read-out: Concentration (ng/ml)): 0 ng/mL | concentration at 24 h (plasma, oral, 30 mg, Male subjects, SAD arm NCT02022306, Dose 30.00, 24 Hours, read-out: Concentration): 14.3 ng/mL | concentration at 30 min (plasma, oral, 30 mg, Male subjects, SAD arm NCT02022306, Dose 30.00, 30 Minutes, read-out: Concentration (ng/ml)): 0 ng/mL | concentration at 48 h (plasma, oral, 30 mg, Male subjects, SAD arm NCT02022306, Dose 30.00, 48 Hours, read-out: Concentration): 9.12 ng/mL | concentration at 72 h (plasma, oral, 30 mg, Male subjects, SAD arm NCT02022306, Dose 30.00, 72 Hours, read-out: Concentration): 6.82 ng/mL | concentration at 72 h (plasma, oral, 30 mg, Male subjects, SAD arm NCT02022306, Dose 30.00, 72 Hours, read-out: Concentration (ng/ml)): 5.73 ng/mL | concentration at 96 h (plasma, oral, 30 mg, Male subjects, SAD arm NCT02022306, Dose 30.00, 96 Hours, read-out: Concentration): 5.25 ng/mL | concentration at 96 h (plasma, oral, 30 mg, Male subjects, SAD arm NCT02022306, Dose 30.00, 96 Hours, read-out: Concentration (ng/ml)): 4.83 ng/mL | concentration at 120 h (plasma, oral, 30 mg, Male subjects, SAD arm NCT02022306, Dose 30.00, 120 Hours, read-out: Concentration): 4.26 ng/mL | concentration at 120 h (plasma, oral, 30 mg, Male subjects, SAD arm NCT02022306, Dose 30.00, 120 Hours, read-out: Concentration (ng/ml)): 3.52 ng/mL | concentration at 144 h (plasma, oral, 30 mg, Male subjects, SAD arm NCT02022306, Dose 30.00, 144 Hours, read-out: Concentration): 3.26 ng/mL | concentration at 144 h (plasma, oral, 30 mg, Male subjects, SAD arm NCT02022306, Dose 30.00, 144 Hours, read-out: Concentration (ng/ml)): 3.18 ng/mL | concentration at 168 h (plasma, oral, 30 mg, Male subjects, SAD arm NCT02022306, Dose 30.00, 168 Hours, read-out: Concentration): 2.33 ng/mL | concentration at 168 h (plasma, oral, 30 mg, Male subjects, SAD arm NCT02022306, Dose 30.00, 168 Hours, read-out: Concentration (ng/ml)): 2.29 ng/mL | concentration at 8 h (plasma, oral, 60 mg, Male subjects, SAD arm NCT02022306, Dose 60.00, 8 Hours, read-out: Concentration (ng/ml)): 110 ng/mL | concentration at 15 min (plasma, oral, 60 mg, Male subjects, SAD arm NCT02022306, Dose 60.00, 15 Minutes, read-out: Concentration (ng/ml)): 0 ng/mL | concentration at 15 min (plasma, oral, 120 mg, Male subjects, SAD arm NCT02022306, Dose 120.00, 15 Minutes, read-out: Concentration (ng/ml)): 0 ng/mL | concentration at 15 min (plasma, oral, 240 mg, Male subjects, SAD arm NCT02022306, Dose 240.00, 15 Minutes, read-out: Concentration (ng/ml)): 0 ng/mL | concentration at 15 min (plasma, oral, 500 mg, Male subjects, SAD arm NCT02022306, Dose 500.00, 15 Minutes, read-out: Concentration (ng/ml)): 0 ng/mL | concentration at 30 min (plasma, oral, 500 mg, Male subjects, SAD arm NCT02022306, Dose 500.00, 30 Minutes, read-out: Concentration (ng/ml)): 2.85 ng/mL
